Experiments:
[1] = target: T1, human α2B -adrenergic receptor (NGC-α2B) (Homo sapiens, UniProt P18089)
T1 sequence (P18089 1-450): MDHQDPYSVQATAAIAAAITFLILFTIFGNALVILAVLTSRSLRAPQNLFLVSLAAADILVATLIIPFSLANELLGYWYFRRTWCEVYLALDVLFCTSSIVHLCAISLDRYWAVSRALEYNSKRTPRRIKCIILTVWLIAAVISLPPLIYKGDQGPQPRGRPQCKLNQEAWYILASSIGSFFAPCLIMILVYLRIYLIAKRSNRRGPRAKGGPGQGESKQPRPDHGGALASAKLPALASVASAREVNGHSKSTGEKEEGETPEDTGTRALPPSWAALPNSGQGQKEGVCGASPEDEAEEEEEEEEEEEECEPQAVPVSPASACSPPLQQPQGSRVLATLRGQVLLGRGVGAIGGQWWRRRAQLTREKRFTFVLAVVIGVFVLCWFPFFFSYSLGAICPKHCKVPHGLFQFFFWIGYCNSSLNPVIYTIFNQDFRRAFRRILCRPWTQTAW

[2] = target: T1, human α2B -adrenergic receptor (NGC-α2B); remark: listed apart in the source
[3] = target: T1, human α2B -adrenergic receptor (NGC-α2B); assay: biochemical

Structure (SMILES): O=C(c1ccc(F)cc1)C1CCN(CCn2c(=O)[nH]c3ccccc3c2=O)CC1 [Ketanserin]
- nH (Hill Coefficient) [1]: 1.21 ± 0.12

Structure (SMILES): NCCc1c[nH]c2ccc(O)cc12 [Serotonin]
- inhibition [2]: 15%
- ability to compete with 3H-Rauwolscine for binding (in words) ([2]; pNGC-α2B transfected Cos-7 or Ltk- cell membranes): inability

Structure (SMILES): COc1cccc(OC)c1OCCNCC1COc2ccccc2O1 (centres unmarked) [WB-4101]
- nH (Hill Coefficient) [1]: 1.5
- Ki [3]: 55 nM

From patent publication US5053337A, “DNA encoding an α2B -adrenergic receptor” (Neurogenetic Corporation, priority 1989, dated 1991)
